According to paper PMC8228075, “In Vitro and In Silico Characterization of G-Protein Coupled Receptor (GPCR) Targets of Phlorofucofuroeckol-A and Dieckol” (Marine Drugs, 2021):
“And” between values parts separate entries of the source, which are not always exact repeats. Equal values may be shown once.

Key:
Assay type in all cases: cell-based
[1] = molecular target: T1, Free fatty acid receptor 1 (FFA1R) (GPR40) (Homo sapiens, UniProt O14842); experiment: FFA1R/GPR40 functional agonist assay (Ca2+ mobilization, HEK-293 cells); conditions: 100 µM; % of control response to 100 µM linoleic acid
T1 construct: host or cells: HEK-293 cells
Protocol: The in-house assay protocol and experimental conditions are reported in our previous reports. […] Then, the mixture of fluorescent probe (Fluo4 Direct, Invitrogen) and probenecid in HBSS buffer (Invitrogen) complemented with 20 mM Hepes (Invitrogen) (pH 7.4) was added into each well and incubated for 60 min at 37 °C, followed by 15 min incubation at 22 °C. Thereafter, the assay plates were positioned in a CellLux microplate reader (PerkinElmer, Waltham, MA, USA) which was used for the addition of the following: For agonist assay-test compound, reference agonist, or HBSS buffer (basal control). Linoleic acid at 100 μM was added in separate assay wells for stimulated control measurement.

[2] = molecular target: T2, Cannabinoid receptor 1 (CB1R) (Homo sapiens, UniProt P21554); experiment: hCB1R functional agonist assay (cAMP, HTRF, CHO cells); conditions: for Agonist Effect: % of control response to 10 nM CP 55940
T2 construct: host or cells: CHO cells
Protocol: (§1) The in-house assay protocol and experimental conditions are reported in our previous reports. The functional effect of dieckol and PFF-A was characterized based on their modulation effect on cytosolic Ca^2+ ion mobilization using a fluorimetric detection method or by measuring their effect on cAMP modulation using homogeneous time-resolved fluorescence (HTRF) detection.
(§2) Functional activity of phlorotannins over hA2AR, hα2CAR, hCB1R, GLP-1R, and h5-HT1BR was determined by measuring their effects on cAMP production by the HTRF detection method using transected cells expressing human cloned receptors.
The transfected CHO cells were suspended in HBSS buffer (Invitrogen) complemented with 20 mM HEPES (pH 7.4). […] After 30 min of incubation at 37 °C, the cells were lysed and the fluorescence acceptor (D2-labeled cAMP) and fluorescence donor (anti-cAMP antibody labeled with europium cryptate) were added.

[3] = molecular target: T3, δ-opioid receptor (hδ-OPR) (Homo sapiens, UniProt P41143); experiment: hδ-OPR functional agonist assay (Ca2+ mobilization, rat basophil leukemia cells); conditions: 100 µM; % of control response to 1 µM DPDPE
T3 construct: host or cells: rat basophil leukemia cells
Source text: as §1
Thereafter, a mixture of fluorescent probe (Fluo8, AAT Bioquest) and probenecid in HBSS buffer (Invitrogen) complemented with 20 mM Hepes (Millipore) (pH 7.4) was added and plates were incubated for 60 min at 30 °C. Then, the assay plates were positioned in a FlipR Tetra microplate reader (Molecular Device, San Jose, CA, USA) for the addition of the test compound, reference agonist/antagonist, or HBSS buffer (basal control). Change in fluorescence intensity that varies proportionally to the free cytosolic Ca^2+ ion concentration was measured.

h5-HT1AR = molecular target: T4, h5-HT1AR (Homo sapiens, UniProt P08908); experiment: h5-HT1AR functional antagonist assay (Ca2+ mobilization, Ba/F3 cells); conditions: for Antagonist Effect: 50 µM, % inhibition of control response to 30 nM serotonin; for IC50: antagonist effect, mean ± SD, n = 3
T4 construct: host or cells: Ba/F3-5HT1AR cells
T4 sequence (P08908 1-422): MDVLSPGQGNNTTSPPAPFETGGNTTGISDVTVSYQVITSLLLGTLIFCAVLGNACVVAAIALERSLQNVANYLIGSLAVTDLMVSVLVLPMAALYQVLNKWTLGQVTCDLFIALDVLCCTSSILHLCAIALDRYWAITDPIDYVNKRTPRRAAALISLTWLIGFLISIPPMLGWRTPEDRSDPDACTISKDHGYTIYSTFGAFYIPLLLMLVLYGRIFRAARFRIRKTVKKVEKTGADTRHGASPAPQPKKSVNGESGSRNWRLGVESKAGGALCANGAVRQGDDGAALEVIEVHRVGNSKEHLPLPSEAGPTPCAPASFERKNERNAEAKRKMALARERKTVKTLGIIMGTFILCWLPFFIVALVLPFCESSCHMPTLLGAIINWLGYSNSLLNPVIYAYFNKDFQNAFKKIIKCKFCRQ
Protocol: as §1
In brief, Ba/F3-5HT1AR cells were first suspended in HBSS buffer (Invitrogen, Carlsbad, CA, USA) complemented with 20 mM HEPES buffer (pH 7.4). Then, the cells were distributed into microplates at a density of 1 × 10^6 cells/well. Subsequently, fluorescent probe (Fluo8, AAT Bioquest) mixed with probenecid in HBSS buffer (Invitrogen, Carlsbad, CA, USA) supplemented with 20 mM HEPES (Invitrogen) (pH 7.4) was added to each well, and the plates were incubated for 60 min at 37 °C. […] Fluorescence intensity was measured which varied in proportion to the free cytosolic Ca^2+ ion concentration.

[4] = molecular target: T1, Free fatty acid receptor 1 (FFA1R) (GPR40); experiment: FFA1R/GPR40 functional antagonist assay (Ca2+ mobilization, HEK-293 cells); conditions: HEK293, read-out: Antagonist Effect
[5] = molecular target: T5, Alpha-2C adrenergic receptor (hα2CAR) (Homo sapiens, UniProt P18825); experiment: hα2CAR functional antagonist assay (cAMP, HTRF, CHO cells); conditions: read-out: Antagonist Effect
T5 construct: host or cells: CHO cells
T5 sequence (P18825 1-462): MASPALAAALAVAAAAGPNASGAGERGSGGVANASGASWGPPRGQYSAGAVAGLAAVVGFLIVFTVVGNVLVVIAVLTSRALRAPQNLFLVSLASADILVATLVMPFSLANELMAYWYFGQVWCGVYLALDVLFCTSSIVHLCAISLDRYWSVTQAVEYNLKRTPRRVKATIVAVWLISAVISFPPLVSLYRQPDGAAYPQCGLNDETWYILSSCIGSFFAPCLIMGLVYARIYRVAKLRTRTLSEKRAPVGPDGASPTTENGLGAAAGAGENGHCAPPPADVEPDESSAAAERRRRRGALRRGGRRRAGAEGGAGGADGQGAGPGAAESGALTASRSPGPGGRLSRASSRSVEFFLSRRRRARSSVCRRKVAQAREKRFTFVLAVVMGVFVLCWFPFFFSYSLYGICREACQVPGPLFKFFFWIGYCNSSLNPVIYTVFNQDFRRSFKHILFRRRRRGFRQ
Protocol: as §1, §2
After 10 min at 37 °C, the cells were lysed and the fluorescence acceptor (D2-labeled cAMP) and fluorescence donor (anti-cAMP antibody labeled with europium cryptate) were added.

[6] = BaF3, read-out: Antagonist Effect

T1 sequence (O14842 whole entry): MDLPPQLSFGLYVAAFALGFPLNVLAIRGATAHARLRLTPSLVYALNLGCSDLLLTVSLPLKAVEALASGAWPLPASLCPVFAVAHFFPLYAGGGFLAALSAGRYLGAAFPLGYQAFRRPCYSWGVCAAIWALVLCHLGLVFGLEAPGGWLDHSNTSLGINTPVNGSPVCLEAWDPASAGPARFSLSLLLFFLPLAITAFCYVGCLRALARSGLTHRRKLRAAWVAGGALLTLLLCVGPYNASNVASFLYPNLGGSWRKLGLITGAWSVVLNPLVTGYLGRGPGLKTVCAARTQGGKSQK
T2 sequence (P21554 whole entry): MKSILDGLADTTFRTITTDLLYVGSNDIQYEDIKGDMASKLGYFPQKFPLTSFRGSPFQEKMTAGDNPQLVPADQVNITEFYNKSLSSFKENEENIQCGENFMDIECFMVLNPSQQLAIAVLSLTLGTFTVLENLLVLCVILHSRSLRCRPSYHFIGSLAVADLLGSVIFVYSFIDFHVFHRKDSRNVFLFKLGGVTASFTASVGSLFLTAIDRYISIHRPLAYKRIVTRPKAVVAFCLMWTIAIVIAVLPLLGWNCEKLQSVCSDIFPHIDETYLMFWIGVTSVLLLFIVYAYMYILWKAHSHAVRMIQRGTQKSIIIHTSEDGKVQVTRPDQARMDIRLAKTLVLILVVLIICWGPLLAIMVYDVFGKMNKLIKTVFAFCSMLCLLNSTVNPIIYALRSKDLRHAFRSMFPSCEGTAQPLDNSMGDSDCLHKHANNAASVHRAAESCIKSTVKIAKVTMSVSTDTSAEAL
T3 sequence (P41143 whole entry): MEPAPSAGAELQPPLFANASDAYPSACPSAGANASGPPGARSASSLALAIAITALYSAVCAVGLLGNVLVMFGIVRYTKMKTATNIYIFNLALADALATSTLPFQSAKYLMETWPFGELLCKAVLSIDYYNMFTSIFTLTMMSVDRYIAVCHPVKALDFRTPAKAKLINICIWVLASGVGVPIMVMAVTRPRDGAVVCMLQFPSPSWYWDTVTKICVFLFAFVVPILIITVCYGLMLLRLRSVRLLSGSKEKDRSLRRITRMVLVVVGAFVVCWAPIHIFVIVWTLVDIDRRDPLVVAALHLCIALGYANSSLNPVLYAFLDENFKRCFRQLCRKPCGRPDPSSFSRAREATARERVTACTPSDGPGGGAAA

| Compound | Agonist Effect [1] [%] | Agonist Effect ([2]; 12.5 µM) | Agonist Effect ([2]; 25 µM) | Agonist Effect ([2]; 50 µM) | Agonist Effect ([2]; 100 µM) [%] | EC50 ([2]; agonist effect, mean ± SD, n = 3) [µM] | Agonist Effect [3] [%] | Antagonist Effect (h5-HT1AR) [%] | inhibition at 12.5 µM (h5-HT1AR; [6]) [%] | inhibition at 25 µM (h5-HT1AR; [6]) [%] | inhibition at 100 µM (h5-HT1AR; [6]) [%] | IC50 (h5-HT1AR) [µM] | inhibition at 100 µM [4] [%] | inhibition at 100 µM [5] [%] | inhibition at 200 µM (h5-HT1AR; [6]) [%] |
| --- | --- | --- | --- | --- | --- | --- | --- | --- | --- | --- | --- | --- | --- | --- | --- |
| Oc1cc(O)cc(Oc2c(O)cc(O)c3c2Oc2c(O)cc4oc5c(Oc6cc(O)cc(O)c6)c(O)cc(O)c5c4c2O3)c1 [PFF-A, phlorofucofuroeckol-A] | −1.0 ± 0.07 | 46.7% and 46.7 ± 6.22% | 80.3% and 80.3 ± 4.10% | 96.45% and 96.45 ± 5.02% | 113.8 ± 3.68 | 13.4 ± 2.03 | 14.7 ± 7.35 | 85.55 ± 8.41 | 37.4 ± 2.19 | 68.2 ± 9.89 | 77 ± 11 | 17.8 ± 3.42 | 30.1 ± 0.78 | 19.2 ± 9.76 |  |
| Oc1cc(O)cc(Oc2c(O)cc(O)c3c2Oc2c(O)cc(Oc4c(O)cc(Oc5c(O)cc(O)c6c5Oc5c(O)cc(O)cc5O6)cc4O)cc2O3)c1 [Dieckol, dieckol] | 0.2 ± 1.56 |  |  |  | −23.3 ± 12.09 |  | −5.7 ± 0.14 | 54.7 ± 1.7 |  |  | 91 ± 3.11 | 43.3 ± 3.22 | 22.6 ± 5.44 | -1.2 ± 6.08 | 100.9 ± 0.57 |
